In publication PMC7211193, “Evaluation of absorption, distribution, metabolism, and excretion of [^14C]-rucaparib, a poly(ADP-ribose) polymerase inhibitor, in patients with advanced solid tumors” (Investigational New Drugs, 2019):

Experiment: Mass balance: recovery of radioactivity in urine and feces
Assay type: in vivo, human
Description: Six patients received a single oral dose of [^14C]-rucaparib 600 mg (approximately 5.18 MBq or 140 μCi) on day 1 after fasting for 10 h and were confined at the study site for the collection of blood samples and excreta for a maximum of 12 days.
For the purposes of the mass balance study and metabolite profiling, urine and fecal samples were collected during predetermined intervals. Urine was collected at time 0 (predose), 0–6, 6–12, and 12–24 h, and daily per 24-h interval from day 2 to day 12. Urine was collected in 3-L polyethylene containers and stored at 4 °C for the duration of the collection period. After each collection period, urine samples were mixed thoroughly, weighed, portioned into aliquots in polypropylene tubes, and then frozen at or below −70 °C until metabolite profiling and TRA analyses by LSC. Feces were collected daily in 24-h intervals from predose to day 12. Feces collections were kept at or below −20 °C. Sample pretreatment involved diluting and homogenizing the feces by adding water (1–2 weight equivalents). An Ultra-Turrax mixer (IKA, Staufen im Breisgau, Germany) was used to homogenize the samples before aliquoting. Separate aliquots of fecal homogenate were transferred to polypropylene tubes. Aliquots for radioactivity measurement by LSC were stored at or below −20 °C until analysis, whereas aliquots for metabolite profiling were stored at −70 °C until analysis.
Patients 01, 05, and 09 were confined to the study site for sample collections for 12 days, but Patients 03, 06, and 08 were discharged earlier per protocol because cumulative recovery of radioactivity from these patients exceeded 90% of the administered dose or the radioactivity in urine and feces was <1% of the administered dose over a 24-h period on 2 consecutive days.
TRA analysis was performed on a Liquid Scintillation Counter Tri-Carb Model 3100TR (PerkinElmer). Aliquots of blood (300 μL), plasma (250 μL), and urine (1 mL) were transferred to scintillation vials. Blood samples were incubated at ≥60 °C with SOLVABLE (1 mL). After cooling to room temperature, EDTA (0.1 M, 100 μL) and hydrogen peroxide (225 μL) were added to dissolve blood cells, reduce foaming, and decrease color intensity. Finally, after incubation at ≥45 °C and ≥60 °C, Ultima Gold (≥5-fold) was added, and the samples were analyzed with LSC. For urine samples, Ultima Gold (≥5-fold) was added, and the samples were analyzed with LSC.
Fecal samples were processed further and combusted before LSC analyses. Aliquots (≈500 mg) of the fecal homogenates were dried in an oven (50 °C). Combustaid (100 μL) was added to the dry homogenates and the sample was combusted in a Sample Oxidizer Model 307 (PerkinElmer). Carbo-Sorb E (7 mL) was used as an absorber agent for the [^14C]-carbon dioxide that was generated during combustion. At the end of the combustion cycle, the absorber was mixed with 13 mL of the scintillant PermaFluor E. After combustion, TRA of fecal aliquots was determined by LSC as described for urine samples.
For the vomit sample collected from Patient 01 (clear vomitus) the urine method was used, and for Patient 05 (not clear vomitus) the feces method was used.

[1] = within 12 days post dose, mean ± SD, N = 6

Q: Which “Cumulative recovery of the actual dose, Patient 01” value (Patient 01, dose corrected for loss by vomiting) does the source give for CNCc1ccc(-c2[nH]c3cc(F)cc4c3c2CCNC4=O)cc1 [Rucaparib, rucaparib] here?
A: The value was 86.5%.

Q: What about the “Dose recovery in feces, patient who lost 0.03% of dose by vomiting” value (Patient 05) of the same compound?
A: The value was 62.2%.

Q: And the “Dose recovery in urine, patient who lost 0.03% of dose by vomiting” value (Patient 05)?
A: Its value is 10.9%.

Q: What about the “Cumulative dose recovery, patient who lost 0.03% of dose by vomiting (lowest recovery)” value (Patient 05, urine plus feces) of the same compound?
A: Its value is 73.1%.

Q: What about the bioavailability (human, urine and feces, po, 600 mg, radioactivity in urine plus radioactivity recovered as metabolites in feces, read-out: Oral bioavailability suggested by the current study) of the same compound?
A: Its bioavailability is no less than 21%.

Q: And the “Time by which 90% of the observed urinary recovery was achieved” value (post dose)?
A: Its value is no more than 120 h.

Q: What about the “Time within which 90% of the observed fecal recovery was found” value (post dose) of the same compound?
A: Its value is no more than 168 h.

Q: What about the “Recovery of administered radioactive dose in feces” value [1] of the same compound?
A: Its value is 71.9%.

Q: And the “Recovery of administered radioactive dose in urine” value [1]?
A: The value was 17.4%.

Q: What about the “Total recovery of administered radioactive dose in excreta” value [1] of the same compound?
A: Its value is 89.3%.
